From patent US4689345A, “Oxygenated alkyl substituted bicyclo alkanes” (CBD Corporation, priority 1986, dated 1987)
Entries after “also recorded” stand apart in the source; their conditions may differ.

What was measured:
androgen receptor sites = molecular target: T1, androgen receptor sites (Homo sapiens, UniProt P10275); experiment: Anti-androgenic action in similar tests
T1 construct: other tests of the document use human skin, keloid and fibroblasts with 3H-DHT
Excerpt: The test procedures set forth in Examples 54-58 may be repeated with the compound 2-(5-methoxyhept-1-yl)bicyclo[3.3.0]octan-7-one {hexahydro-4-(5-methoxyheptyl)-2(1H)-pentalenone}.

human fibroblast cells [1] = experiment: Elastin production by fibroblast cells; format: cell-based; conditions: for formation of elastin: Example 45; for increase in elastin production over control cells: treated vs control (non-treated) fibroblast cells
Excerpt: (§1) Experiments generally following the methodology of Boote et al., Biochimica et Biophysica Acta, Volume 607, pages 145-160 (1980), have shown that while control human fibroblast cells have copious collagen production, treatment with the compounds of the invention provides human fibroblast cells with suppressed collagen production and with an about 30% increase in elastin production over control cells.
(§2) Wrinkling of the skin involves the decreased formation of elastin and the increased formation of collagen by supporting cells, predominantly the fibroblasts.

androgen receptor [2] = experiment: Androgen receptor inhibition, Fulsarium gravarium; format: binding
Excerpt: (§3) In the second series of experiments using the compound of the invention 2-(5-hydroxyhept-1-yl) bicyclo[3.3.0]octan-7-one {hexahydro-4-(5-hydroxyheptyl)-2-(1H)-pentalenone} upon zeralenone and zearalanol production, zearalenone and zearalanol were chemically obtained from Sigma Chemical Co., St. Louis, Mo.

progesterone receptor [3] = experiment: Progesterone receptor inhibition, Saccharomyces cerevisiae strains; conditions: DHT:anti-androgen 1:1,000
androgen receptor [4] = molecular target: T2, androgen receptor (Homo sapiens, UniProt P10275); experiment: In vitro inhibition of the androgen receptor-DHT interaction; format: binding; set-up: from tissue; conditions: for % of Androgen Receptor Inhibition: DHT; for Femtamoles of DHT Bound/mg Protein: corrected for nonspecific binding, 0:1 = 78
T2 sequence (P10275 1-920): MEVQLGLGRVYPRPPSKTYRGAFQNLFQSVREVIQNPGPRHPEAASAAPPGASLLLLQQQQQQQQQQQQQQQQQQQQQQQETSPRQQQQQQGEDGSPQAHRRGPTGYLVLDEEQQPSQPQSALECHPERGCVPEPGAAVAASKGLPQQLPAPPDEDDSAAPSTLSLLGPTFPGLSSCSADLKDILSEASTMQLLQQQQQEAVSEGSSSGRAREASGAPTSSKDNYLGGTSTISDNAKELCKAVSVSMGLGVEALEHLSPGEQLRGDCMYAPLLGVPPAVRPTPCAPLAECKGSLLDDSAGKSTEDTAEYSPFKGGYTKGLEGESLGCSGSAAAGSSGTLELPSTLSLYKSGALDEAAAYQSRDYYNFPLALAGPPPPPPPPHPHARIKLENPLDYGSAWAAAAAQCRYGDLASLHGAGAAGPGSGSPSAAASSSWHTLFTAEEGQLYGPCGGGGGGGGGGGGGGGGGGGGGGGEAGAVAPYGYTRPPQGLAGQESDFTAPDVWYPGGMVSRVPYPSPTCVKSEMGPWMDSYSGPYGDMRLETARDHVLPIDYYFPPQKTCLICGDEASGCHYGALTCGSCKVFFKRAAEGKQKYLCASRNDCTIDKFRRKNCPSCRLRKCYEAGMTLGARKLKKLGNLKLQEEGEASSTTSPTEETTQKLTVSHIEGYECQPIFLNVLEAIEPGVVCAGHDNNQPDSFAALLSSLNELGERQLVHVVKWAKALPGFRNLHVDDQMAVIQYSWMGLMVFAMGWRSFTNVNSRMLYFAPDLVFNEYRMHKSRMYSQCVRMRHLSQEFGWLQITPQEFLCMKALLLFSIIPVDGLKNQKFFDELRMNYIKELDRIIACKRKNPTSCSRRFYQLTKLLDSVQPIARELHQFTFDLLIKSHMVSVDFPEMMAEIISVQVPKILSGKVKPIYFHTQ

progesterone receptor [5] = experiment: Progesterone receptor inhibition, Fulsarium gravarium; format: binding
Excerpt: as §3

human fibroblast cells [6] = experiment: Collagen production by fibroblast cells; format: cell-based; conditions: treated vs control cells
Excerpt: as §1, §2

estrogen receptor = experiment: Estrogen receptor inhibition, Torulopsis; format: binding
progesterone receptor [7] = experiment: Progesterone receptor inhibition, Candida; format: binding
androgen receptor site = molecular target: T3, androgen receptor site (Homo sapiens, UniProt P10275); experiment: % inhibition of labelled androgen (3H DHT) binding to caesarean section skin from hirsute patients
T3 construct: the test utilizing caesarean section skin from hirsute patients; from tissue; host or cells: caesarean section skin from hirsute patients
T3 sequence (P10275 1-920): T2 sequence (P10275 1-920)

Fusarium = experiment: Effects on Fusarium growth and fungal hormone production; format: cell-based
Excerpt: It is also known that these fungi elaborate zearalenone and zearalanol which are toxic substances to livestock ingesting the grain rotted by them. Ingestion of these toxic substances is known to influence the prepubertal development of pigs (Berger et al., Journal of Animal Science, Vol. 53, pages 1559-1564 (1981). Zearalenone and zearalanol also affect milk production, breeding and pregnancy in such large livestock animals as pigs, cows and horses (Young et al., Journal of Animal Science, Vol. 54, pages 976-982). The Fusarium family of fungi also adversely affect chicken, turkey and other poultry animal populations (Allen et al., Poultry Science, Vol. 60, pages 124-131 (1981); Mirocha et al., Poultry Science, Vol. 60, pages 19-25 (1981)). Because of the importance of livestock production, the effect of the anti-androgens of this invention on these fungi was extensively studied. There is no currently available satisfactory treatment for the fungi nor the fungal hormones they elaborate (i.e., zearalenone and zearalanol).

androgen receptor [8] = molecular target: T2, androgen receptor; experiment: In vitro inhibition of the androgen receptor-testosterone interaction; format: binding; set-up: from tissue; conditions: for inhibition of the androgen receptor site: 10 molecules of compound for one molecule of testosterone; for Femtamoles of Testosterone Bound/mg Protein / % of Androgen Receptor Inhibition: ratio of compound to androgen 20:1; for Femtamoles of Testosterone Bound/mg Protein: corrected for nonspecific binding, 0:1 = 3.6; for % of Androgen Receptor Inhibition: testosterone
Description: Competitive inhibition experiments were performed using compound IV in the second technique described above.

[9] = molecular target: T4, androgen receptor sites (keloid cytosol) (Homo sapiens, UniProt P10275); experiment: Keloid cytosol steroid binding assay, androgen (DHT)
T4 construct: Surgical excision of keloids was performed from clinic and private patient populations; from tissue; host or cells: cytosol of surgically excised keloids
T4 sequence (P10275 1-920): T2 sequence (P10275 1-920)

keloid = experiment: Suppression of keloid formation; set-up: species or system human
[10] = ratio of compound to androgen 10:1
[11] = ratio of compound to androgen 100:1
[12] = ratio of compound to androgen 1000:1
[13] = ratio of compound to androgen 10000:1

SMILES: CCC(O)CCCCC1CCC2CC(=O)CC12 (centres unmarked) [Compound IV]
- anti-androgenic action (androgen receptor sites): anti-androgenic compound operating in the same manner
- formation of elastin (human fibroblast cells [1]): massive observable increase in the formation of elastin
- increase in elastin production over control cells (human fibroblast cells [1]): ~30%
- % Androgen Receptor Inhibition (androgen receptor [2]; DHT:anti-androgen 1:1): 26%
- % Androgen Receptor Inhibition (androgen receptor [2]; DHT:anti-androgen 1:10): 49%
- % Androgen Receptor Inhibition (androgen receptor [2]; DHT:anti-androgen 1:100): 67%
- % Androgen Receptor Inhibition (androgen receptor [2]; DHT:anti-androgen 1:1,000): 87%
- % Progesterone Receptor Inhibition (progesterone receptor [3]; strain 1): 2%
- % Progesterone Receptor Inhibition (progesterone receptor [3]; strain 2): 1%
- % Progesterone Receptor Inhibition (progesterone receptor [3]; strain 3): 0%
- % Progesterone Receptor Inhibition (progesterone receptor [3]; strain 4): 0%
- % Progesterone Receptor Inhibition (progesterone receptor [3]; strain 5): 3%
- % Progesterone Receptor Inhibition (progesterone receptor [3]; strain 6): 8%
- % Progesterone Receptor Inhibition (progesterone receptor [3]; strain 7): 4%
- % of Androgen Receptor Inhibition (androgen receptor [4]; [10]): 25.6%
- % of Androgen Receptor Inhibition (androgen receptor [4]; [11]): 41.0%
- Femtamoles of DHT Bound/mg Protein (androgen receptor [4]; [10]): 58 Femtamoles/mg Protein
- Femtamoles of DHT Bound/mg Protein (androgen receptor [4]; [11]): 46 Femtamoles/mg Protein
- % Progesterone Receptor Inhibition (progesterone receptor [5]; DHT:anti-androgen 1:1): 1%
- % Progesterone Receptor Inhibition (progesterone receptor [5]; DHT:anti-androgen 1:10): 3%
- % Progesterone Receptor Inhibition (progesterone receptor [5]; DHT:anti-androgen 1:100): 6%
- % Progesterone Receptor Inhibition (progesterone receptor [5]; DHT:anti-androgen 1:1,000): 4%
- collagen production/formation (human fibroblast cells [6]): decreased
- collagen production/formation (human fibroblast cells [6]; listed as compound IV): decrease in collagen production
- % Estrogen Receptor Inhibition (estrogen receptor): 0%
- % Progesterone Receptor Inhibition (progesterone receptor [7]): 7%
- % Inhibition of 3H Androgen Binding to Skin (androgen receptor site; [10]): 25%
- % Inhibition of 3H Androgen Binding to Skin (androgen receptor site; [11]): 51%
- % Inhibition of 3H Androgen Binding to Skin (androgen receptor site; [12]): 75%
- % Inhibition of 3H Androgen Binding to Skin (androgen receptor site; [13]): 83%
- inhibitory effects on species of Fusarium (Fusarium): valuable inhibitory effects
- colony counts (Fusarium; Fusarium): markedly decreased
- growth rate (Fusarium; Fusarium): markedly decreased
- production of zearalanol (Fusarium; Fusarium): markedly decreased
- production of zearalenone (Fusarium; Fusarium): markedly decreased
- inhibition of the androgen receptor site (androgen receptor [8]): inhibited the androgen receptor site
- Femtamoles of Testosterone Bound/mg Protein (androgen receptor [8]): 2.0 Femtamoles/mg Protein
- % of Androgen Receptor Inhibition (androgen receptor [8]): 43.7%

SMILES: CCC(CCCCC1CCC2CC(=O)CC12)OC (centres unmarked) [Compound V, 2-(5-Methoxyhept-1-yl)bicyclo[3.3.0]octan-7-one]
- anti-androgenic action (androgen receptor sites): anti-androgenic compound operating in the same manner
- formation of elastin (human fibroblast cells [1]): massive observable increase in the formation of elastin
- increase in elastin production over control cells (human fibroblast cells [1]): ~30%
- % of Androgen Receptor Inhibition (androgen receptor [4]; [10]): 43.6%
- % of Androgen Receptor Inhibition (androgen receptor [4]; [11]): 51.3%
- Femtamoles of DHT Bound/mg Protein (androgen receptor [4]; [10]): 44 Femtamoles/mg Protein
- Femtamoles of DHT Bound/mg Protein (androgen receptor [4]; [11]): 38 Femtamoles/mg Protein
- % Block ([9]; patient 1, suprapubic): 43%
- % Block ([9]; patient 2, chest): 24%
- % Block ([9]; patient 3, neck): 57%
- % Block ([9]; patient 4, inguinal groin): 86%
- collagen production/formation (human fibroblast cells [6]): decrease in collagen production; also recorded: decreased
- % Inhibition of 3H Androgen Binding to Skin (androgen receptor site; [10]): 32%
- % Inhibition of 3H Androgen Binding to Skin (androgen receptor site; [11]): 55%
- % Inhibition of 3H Androgen Binding to Skin (androgen receptor site; [12]): 80%
- % Inhibition of 3H Androgen Binding to Skin (androgen receptor site; [13]): 86%
- inhibitory effects on species of Fusarium (Fusarium): valuable inhibitory effects
- keloid formation (keloid): suppression of keloid formation
- inhibition of the androgen receptor site (androgen receptor [8]): inhibited the androgen receptor site
- Femtamoles of Testosterone Bound/mg Protein (androgen receptor [8]): 1.9 Femtamoles/mg Protein
- % of Androgen Receptor Inhibition (androgen receptor [8]): 47.0%
